Patent publication US9956197B2 (priority 2013, dated 2018)
Marks after values point to notes of the source that are not given here.

How the values were obtained:
[1] = system: PTZ (Pentylenetetrazol) induced clonic seizure; experiment: animal or person; type: in vivo, ICR mice; details: for PTZ test (ip) in Mice Protection % / PTZ test (ip) in Mice Peak Time: mouse, in vivo
[2] = system: ACTH-refractory infantile spasm (behavioral spasms); experiment: animal or person; type: in vivo, Sprague-Dawley rats; details: for inhibition in vivo at 60 mg/kg: Rattus norvegicus, ip, read-out: ACTH-refractory IS (ip) Protection %, percentage of activity compared to the vehicle only; for ACTH-refractory IS (ip) Peak Time: rat, in vivo
[3] = system: Picrotoxin (PIC) induced clonic seizure; experiment: animal or person; type: in vivo, ICR mice
[4] = system: Lithium-pilocarpine induced status epilepticus; parameters: species or system Sprague-Dawley rats; details: in vivo
[5] = system: PTZ (Pentylenetetrazol) induced clonic seizure; parameters: species or system SD rats; details: rat, in vivo
[6] = system: Lithium-pilocarpine induced status epilepticus; parameters: species or system Sprague-Dawley rats; details: in vivo; remark: listed apart in the source
[7] = Mus musculus, ip, read-out: PIC (ip) percentage of activity compared to the vehicle only

SMILES | PTZ test (ip) in Mice Protection % [1] | inhibition in vivo at 60 mg/kg [2] | ACTH-refractory IS (ip) Peak Time [2] | responders at 50 mg/kg [3, 7] | Intervention (rat, iv) Protection % [6] | other results
C[C@H](OC(N)=O)[C@@H](O)c1ccc(Cl)cc1Cl [Compound 36, 1-(2,4-dichlorophenyl)-(S)-1-hydroxypropyl-(S)-2-carbamate] | ^a20.4 (33.3%) | 37.5% | 3 h | 50% | – | –
CC(OC(N)=O)C(O)c1ccccc1Cl (racemic) [Compound 3, 1-(2-chlorophenyl)-1-hydroxypropyl-2-carbamate] | – | 34% | 3 h | – | – | PTZ test (ip) in Mice Peak Time ([1]; ip): 0.5 h; Prevention (rat, ip) Peak Time [4]: 0.5 h; PTZ test (ip) in Rats Peak Time [5]: 18.9 (*0.5) h; responders at 10 mg/kg [3, 7]: 50%
C[C@@H](OC(N)=O)[C@@H](O)c1ccccc1Cl [Compound 4, 1-(2-chlorophenyl)-(S)-1-hydroxypropyl-(R)-2-carbamate] | – | 24.3% | 3 h | – | ^a46 (100%) | PTZ test (ip) in Mice Peak Time ([1]; ip): 0.5 h; responders at 30 mg/kg [3, 7]: 100%
CNC(=O)O[C@@H](C)[C@@H](O)c1ccccc1Cl [Compound 15, 1-(2-chlorophenyl)-(S)-1-hydroxypropyl-(S)-2-N-methylcarbamate] | – | 67.4% | 2 h | 50% | ^a46 (100%) | PTZ test (ip) in Rats Protection % [5]: ^b25 (33.3%)
CC[C@H](OC(N)=O)[C@@H](O)c1ccccc1Cl [Compound 6, 1-(2-chlorophenyl)-(S)-1-hydroxybutyl-(S)-2-carbamate] | – | 76.2% | 3 h | 66.7% | ^a46 (100%) | PTZ test (ip) in Mice Peak Time ([1]; ip): 0.5 h
CC(C)[C@H](OC(N)=O)[C@@H](O)c1ccccc1Cl [Compound 9, 1-(2-chlorophenyl)-(S)-1-hydroxy-3-methyl-butyl-(S)-2-carbamate] | ^a20.4 (33.3%) | – | – | 16.7% | – | –
CCCCC(OC(N)=O)C(O)c1ccccc1Cl (racemic) [Compound 14, 1-(2-chlorophenyl)-1-hydroxyhexyl-2-carbamate] | ^a20.4 (16.7%) | – | – | 16.7% | – | –
CCCNC(=O)O[C@@H](C)[C@@H](O)c1ccccc1Cl [Compound 16, 1-(2-chlorophenyl)-(S)-1-hydroxypropyl-(S)-2-N-propylcarbamate] | – | – | – | – | ^a46 (100%) | PTZ test (ip) in Rats Protection % [5]: ^b30 (33.3%)
CCCNC(=O)OC(C)C(O)c1ccccc1Cl (racemic) [Compound 30, 1-(2-chlorophenyl)-1-hydroxypropyl-2-N-propylcarbamate] | ^a20.4 (33.3%) | – | – | 16.7% | – | –
C[C@H](OC(N)=O)[C@H](O)c1ccccc1Cl [Compound 5, 1-(2-chlorophenyl)-(R)-1-hydroxypropyl-(S)-2-carbamate] | – | – | – | – | – | PTZ test (ip) in Mice Peak Time ([1]; ip): 0.5 h
CCCC[C@H](OC(N)=O)[C@@H](O)c1ccc(Cl)cc1Cl [Compound 43, 1-(2,4-dichlorophenyl)-(S)-1-hydroxyhexyl-(S)-2-carbamate] | – | – | – | 16.6% | – | PTZ test (ip) in Rats Protection % [5]: ^b25 (33.3%)
CC(OC(=O)NC1CC1)C(O)c1ccccc1Cl (racemic) [Compound 32, 1-(2-chlorophenyl)-1-hydroxypropyl-2-N-cyclopropylcarbamate] | ^a20.4 (16.7%) | – | – | – | ^a46 (100%) | –
C[C@H](OC(N)=O)[C@@H](O)c1ccccc1F [Compound 63, 1-(2-fluorophenyl)-(S)-1-hydroxypropyl-(S)-2-carbamate] | – | – | – | – | ^a46 (50%) | Prevention (rat, ip) Peak Time [4]: 0.25 h; responders at 60 mg/kg [3, 7]: 33.3%
CC[C@H](OC(N)=O)[C@@H](O)c1c(Cl)cccc1Cl [Compound 40, 1-(2,6-dichlorophenyl)-(S)-1-hydroxybutyl-(S)-2-carbamate] | ^a20.4 (33.3%) | – | – | 66.6% | ^a46 (100%) | –
C[C@H](OC(N)=O)[C@@H](O)c1ccccc1I [Compound 65, 1-(2-iodophenyl)-(S)-1-hydroxypropyl-(S)-2-carbamate] | ^a20.4 (100%) | 92.1% | 3 h | – | ^a46 (100%) | Prevention (rat, ip) Peak Time [4]: 2 h; PIC (ip) percentage of activity compared to the vehicle only ([3]; mice, injection amount 50 mg/kg): 50^a (100%)
CNC(=O)OC(C)C(O)c1ccccc1Cl (racemic) [Compound 29, 1-(2-chlorophenyl)-1-hydroxypropyl-2-N-methylcarbamate] | ^a20.4 (33.3%) | – | – | – | – | –

SMILES | PTZ test (ip) in Mice Protection % [1] | inhibition in vivo at 60 mg/kg [2] | ACTH-refractory IS (ip) Peak Time [2] | responders at 50 mg/kg [3, 7] | Intervention (rat, iv) Protection % [6] | other results
C[C@H](OC(N)=O)[C@@H](O)c1cccc(Cl)c1Cl [Compound 38, 1-(2,3-dichlorophenyl)-(S)-1-hydroxypropyl-(S)-2-carbamate] | – | – | – | 50% | ^a46 (50%) | –
CC[C@H](OC(N)=O)[C@@H](O)c1ccc(Cl)cc1Cl [Compound 39, 1-(2,4-dichlorophenyl)-(S)-1-hydroxybutyl-(S)-2-carbamate] | – | – | – | 66.7% | – | PTZ test (ip) in Mice Peak Time ([1]; ip): 0.5 h
C[C@@H](OC(N)=O)[C@H](O)c1cccc(Cl)c1Cl [Compound 47, 1-(2,3-dichlorophenyl)-(R)-1-hydroxypropyl-(R)-2-carbamate] | – | 91% | 3 h | – | – | –
CCCC[C@H](OC(N)=O)[C@@H](O)c1c(Cl)cccc1Cl [Compound 44, 1-(2,6-dichlorophenyl)-(S)-1-hydroxyhexyl-(S)-2-carbamate] | ^a20.4 (33.3%) | – | – | 16.6% | – | –
C[C@@H](OC(N)=O)[C@H](O)c1ccccc1Cl [Compound 2, 1-(2-chlorophenyl)-(R)-1-hydroxypropyl-(R)-2-carbamate] | – | 65.9% | 1 h | 16.7% | ^a46 (50%) | PTZ test (ip) in Mice Peak Time ([1]; ip): 0.5 h; Prevention (rat, ip) Peak Time [4]: 0.5 h; PTZ test (ip) in Rats Peak Time [5]: 51.9 (*1) h
CCCNC(=O)O[C@H](C)[C@H](O)c1ccccc1Cl [Compound 23, 1-(2-chlorophenyl)-(R)-1-hydroxypropyl-(R)-2-N-propylcarbamate] | – | – | – | 16.7% | ^a46 (100%) | responders at 20.4 mg/kg ([1]; Mus musculus, ip, read-out: PTZ test (ip) in Mice Protection %): 50%
CCC(OC(N)=O)C(O)c1ccccc1Cl (racemic) [Compound 8, 1-(2-chlorophenyl)-1-hydroxybutyl-2-carbamate] | – | – | – | 33.3% | ^a46 (50%) | –
C[C@@H](OC(N)=O)[C@H](O)c1ccc(Cl)cc1Cl [Compound 45, 1-(2,4-dichlorophenyl)-(R)-1-hydroxypropyl-(R)-2-carbamate] | ^a20.4 (16.7%) | – | – | – | ^a46 (33.3%) | PTZ test (ip) in Rats Protection % [5]: ^b50 (16.7%)
CC(C)NC(=O)OC(C)C(O)c1ccccc1Cl (racemic) [Compound 31, 1-(2-chlorophenyl)-1-hydroxypropyl-2-N-isopropylcarbamate] | ^a20.4 (83.3%) | – | – | 16.7% | ^a46 (100%) | –
C[C@H](OC(N)=O)[C@@H](O)c1c(Cl)cccc1Cl [Compound 37, 1-(2,6-dichlorophenyl)-(S)-1-hydroxypropyl-(S)-2-carbamate] | – | 83.8% | 3 h | – | ^a46 (100%) | PTZ test (ip) in Mice Peak Time ([1]; ip): 0.25 h; ED50 ([3]; Mus musculus, ip, read-out: PIC (ip) ED50): 23.4 mg/kg; PIC (ip) Peak Time ([3]; mice): 0.25 h
CCCC[C@H](OC(N)=O)[C@@H](O)c1ccccc1Cl [Compound 12, 1-(2-chlorophenyl)-(S)-1-hydroxyhexyl-(S)-2-carbamate] | ^a20.4 (33.3%) | – | – | 16.7% | – | –
CCCC[C@@H](OC(N)=O)[C@H](O)c1ccccc1Cl [Compound 13, 1-(2-chlorophenyl)-(R)-1-hydroxyhexyl-(R)-2-carbamate] | – | – | – | 16.7% | – | –
CC[C@H](OC(N)=O)[C@@H](O)c1ccccc1I [Compound 67, 1-(2-iodophenyl)-(S)-1-hydroxybutyl-(S)-2-carbamate] | – | 81.1% | 2 h | 83.3% | ^a46 (100%) | PTZ test (ip) in Mice Peak Time ([1]; ip): 0.5 h; Prevention (rat, ip) Peak Time [4]: 0.5 h; PTZ test (ip) in Rats Protection % [5]: ^b30 (33.3%)
C[C@@H](OC(N)=O)[C@H](O)c1c(Cl)cccc1Cl [Compound 46, 1-(2,6-dichlorophenyl)-(R)-1-hydroxypropyl-(R)-2-carbamate] | – | 78% | 3 h | 33.3% | ^a46 (50%) | –
C[C@H](OC(=O)NC1CC1)[C@@H](O)c1ccccc1Cl [Compound 18, 1-(2-chlorophenyl)-(S)-1-hydroxypropyl-(R)-2-N-cyclopropylcarbamate] | – | – | – | – | ^a46 (66.7%) | PTZ test (ip) in Rats Protection % [5]: ^b30 (16.7%)
C[C@@H](OC(=O)NC1CC1)[C@H](O)c1ccccc1Cl [Compound 25, 1-(2-chlorophenyl)-(R)-1-hydroxypropyl-(R)-2-N-cyclopropylcarbamate] | ^a20.4 (66.7%) | – | – | – | ^a46 (100%) | –
